The values that follow come from ChEMBL document CHEMBL1158981, “An Unusual Sulfur-Containing Diketopiperazine from the Bermudian Sponge Tedania ignis” (J Nat Prod, 1991).

The data set relates to Artemia. Kind of data set: Toxicity against brine shrimp. The note with it: in vivo. Type of data set: organism-based.

On to `O=C1[C@@H]2CCCN2C(=O)[C@H]2CSCN12`, for which the Activity entry is listed as “Non-toxic”.
